Reference: US12336981B2, “Compounds and compositions for the inhibition of NAMPT” (Valo Health, Inc., priority 2010, dated 2025)
Read-outs that look alike come from different tables or passages of the source.

Experiments:
A2780 cells = assay: In-vitro cell proliferation assay (SRB), A2780 cells; assay type: cell-based; conditions: Homo sapiens, A2780, 72 h, A2780 cells, 72 hours, read-out: A2780 IC50
Method in brief: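 Proliferation is assessed by sulforhodamine B staining following a 72-hour incubation with compound dilutions containing 0.1% DMSO.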

NAMPT = molecular target: T1, NAMPT (Homo sapiens, UniProt P43490); assay: Biochemical inhibition assay: NAMPT enzymatic reaction, NMN quantified by mass spectrometry; conditions: NAMPT enzymatic reaction; read-out: Biochem IC50
T1 construct: His tag; host or cells: E. coli
Method in brief: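 Inhibition of E. coli-expressed His-tagged human NAMPT, measured as NMN formation by mass spectrometry after a 30 min room-temperature reaction containing 1 μM NAM, 100 μM PRPP and 2.5 mM ATP.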

T1 sequence (P43490 whole entry): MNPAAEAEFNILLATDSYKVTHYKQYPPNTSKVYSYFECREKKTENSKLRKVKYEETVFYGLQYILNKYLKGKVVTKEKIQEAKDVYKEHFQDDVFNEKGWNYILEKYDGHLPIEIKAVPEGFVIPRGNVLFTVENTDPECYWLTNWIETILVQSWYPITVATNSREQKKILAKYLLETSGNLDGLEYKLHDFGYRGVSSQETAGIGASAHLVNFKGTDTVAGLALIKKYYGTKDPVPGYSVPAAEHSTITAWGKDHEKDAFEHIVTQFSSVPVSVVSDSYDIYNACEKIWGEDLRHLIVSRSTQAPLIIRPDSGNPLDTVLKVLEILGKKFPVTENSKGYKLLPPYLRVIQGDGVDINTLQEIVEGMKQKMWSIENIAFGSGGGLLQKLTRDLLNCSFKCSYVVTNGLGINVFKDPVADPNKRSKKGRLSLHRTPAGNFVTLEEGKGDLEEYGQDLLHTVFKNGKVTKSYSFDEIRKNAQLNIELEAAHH

For `COc1ccccc1S(=O)(=O)c1ccc(CNC(=O)c2cnc3[nH]ncc3c2)cc1` [N-({4-[(2-methoxybenzene)sulfonyl]phenyl}methyl)-1H-pyrazolo[3,4-b]pyridine-5-carboxamide], the IC50 (A2780 cells; SRB) was 61.8 nM and the IC50 (NAMPT) was 68.3 nM.
Molecule `COc1ccccc1S(=O)(=O)c1ccc(CNC(=O)c2cc3cnccc3[nH]2)cc1` [N-({4-[(2-methoxybenzene)sulfonyl]phenyl}methyl)-1H-pyrrolo[3,2-c]pyridine-2-carboxamide] has an IC50 (A2780 cells; SRB assay) of 7 nM and an IC50 (NAMPT) of 9 nM.
Molecule `COc1ccccc1S(=O)(=O)c1ccc(CNC(=O)c2cc3ccncc3o2)cc1` [N-({4-[(2-methoxybenzene)sulfonyl]phenyl}methyl)furo[2,3-c]pyridine-2-carboxamide] has an IC50 (A2780 cells; SRB) of 26.5 nM and an IC50 (NAMPT) of 18.9 nM.
Work on `COc1ccccc1S(=O)(=O)c1ccc(CNC(=O)c2ccc3nccn3c2)cc1` [N-({4-[(2-methoxybenzene)sulfonyl]phenyl}methyl)imidazo[1,2-a]pyridine-6-carboxamide] yielded an IC50 (A2780 cells; SRB) of 15.3 nM and an IC50 (NAMPT) of 26.5 nM.
With `COc1ccccc1S(=O)(=O)c1ccc(CNC(=O)c2cnc3nccn3c2)cc1` [N-({4-[(2-methoxybenzene)sulfonyl]phenyl}methyl)imidazo[1,2-a]pyrimidine-6-carboxamide] the IC50 (A2780 cells; SRB) was 74.7 nM and the IC50 (NAMPT) was 3.9 nM.
Work on `COc1ccccc1S(=O)(=O)c1ccc(CNC(=O)c2cc3ccncc3s2)cc1` [N-({4-[(2-methoxybenzene)sulfonyl]phenyl}methyl)thieno[2,3-c]pyridine-2-carboxamide] yielded an IC50 (A2780 cells; SRB assay) of 5.3 nM and an IC50 (NAMPT) of 7 nM.
Molecule `COc1ccccc1NS(=O)(=O)c1ccc(CNC(=O)c2cc3cnccc3[nH]2)cc1` [N-({4-[(2-methoxyphenyl)sulfamoyl]phenyl}methyl)-1H-pyrrolo[3,2-c]pyridine-2-carboxamide] has an IC50 (A2780 cells; SRB assay) of 2150 nM and an IC50 (NAMPT) of 89 nM.
With `CCCOc1ccc(S(=O)(=O)c2ccc(CNC(=O)c3cc4ccncc4s3)cc2)c(C)c1` [N-({4-[(2-methyl-4-propoxybenzene)sulfonyl]phenyl}methyl)thieno[2,3-c]pyridine-2-carboxamide] the IC50 (A2780 cells; SRB) was 1.7 nM and the IC50 (NAMPT) was 12.9 nM.
Molecule `Cc1ccccc1S(=O)(=O)c1ccc(CNC(=O)c2cnc3[nH]ncc3c2)cc1` [N-({4-[(2-methylbenzene)sulfonyl]phenyl}methyl)-1H-pyrazolo[3,4-b]pyridine-5-carboxamide] has an IC50 (A2780 cells; SRB) of 100 to 1000 nM and an IC50 (NAMPT) of 92.6 nM.
Work on `Cc1ccccc1S(=O)(=O)c1ccc(CNC(=O)c2cc3cnccc3[nH]2)cc1` [N-({4-[(2-methylbenzene)sulfonyl]phenyl}methyl)-1H-pyrrolo[3,2-c]pyridine-2-carboxamide] yielded an IC50 (A2780 cells; SRB assay) of 13 nM and an IC50 (NAMPT) of 14 nM.
For `Cc1ccccc1S(=O)(=O)c1ccc(CNC(=O)c2cc3ccncc3o2)cc1` [N-({4-[(2-methylbenzene)sulfonyl]phenyl}methyl)furo[2,3-c]pyridine-2-carboxamide], the IC50 (A2780 cells; SRB) was 43.3 nM and the IC50 (NAMPT) was 15.2 nM.
For `Cc1ccccc1S(=O)(=O)c1ccc(CNC(=O)c2ccc3nccn3c2)cc1` [N-({4-[(2-methylbenzene)sulfonyl]phenyl}methyl)imidazo[1,2-a]pyridine-6-carboxamide], the IC50 (A2780 cells; SRB) was 91.2 nM and the IC50 (NAMPT) was 66.9 nM.
Molecule `Cc1ccccc1S(=O)(=O)c1ccc(CNC(=O)c2cc3ccncc3s2)cc1` [N-({4-[(2-methylbenzene)sulfonyl]phenyl}methyl)thieno[2,3-c]pyridine-2-carboxamide] has an IC50 (A2780 cells; SRB assay) of 22.2 nM and an IC50 (NAMPT) of 10 nM.
In the case of `O=C(NCc1ccc(S(=O)(=O)c2ccccc2Oc2ccccc2)cc1)c1cnc2[nH]ncc2c1` [N-({4-[(2-phenoxybenzene)sulfonyl]phenyl}methyl)-1H-pyrazolo[3,4-b]pyridine-5-carboxamide], the IC50 (A2780 cells; SRB) is reported as 100 to 1000 nM and the IC50 (NAMPT) is reported as 100 to 1000 nM.
In the case of `O=C(NCc1ccc(S(=O)(=O)c2ccccc2Oc2ccccc2)cc1)c1cc2cnccc2[nH]1` [N-({4-[(2-phenoxybenzene)sulfonyl]phenyl}methyl)-1H-pyrrolo[3,2-c]pyridine-2-carboxamide], the IC50 (A2780 cells; SRB assay) is reported as 7 nM and the IC50 (NAMPT) is reported as 11 nM.
In the case of `O=C(NCc1ccc(S(=O)(=O)c2ccccc2Oc2ccccc2)cc1)c1ccc2nccn2c1` [N-({4-[(2-phenoxybenzene)sulfonyl]phenyl}methyl)imidazo[1,2-a]pyridine-6-carboxamide], the IC50 (A2780 cells; SRB) is reported as 60.7 nM and the IC50 (NAMPT) is reported as 63.6 nM.
In the case of `O=C(NCc1ccc(S(=O)(=O)c2ccccc2Oc2ccccc2)cc1)c1cc2ccncc2s1` [N-({4-[(2-phenoxybenzene)sulfonyl]phenyl}methyl)thieno[2,3-c]pyridine-2-carboxamide], the IC50 (A2780 cells; SRB assay) is reported as 69.7 nM and the IC50 (NAMPT) is reported as 11 nM.
For `O=C(NCc1ccc(S(=O)(=O)Nc2ccccc2Oc2ccccc2)cc1)c1cc2cnccc2[nH]1` [N-({4-[(2-phenoxyphenyl)sulfamoyl]phenyl}methyl)-1H-pyrrolo[3,2-c]pyridine-2-carboxamide], the IC50 (A2780 cells; SRB assay) was 12000 nM and the IC50 (NAMPT) was 4020 nM.
`O=C(NCc1ccc(S(=O)(=O)CCc2ccccc2)cc1)C1=Nc2ccncc2C1` [N-({4-[(2-phenylethane)sulfonyl]phenyl}methyl)-1H-pyrrolo[3,2-c]pyridine-2-carboxamide] gave an IC50 (A2780 cells; SRB assay) of 22 nM and an IC50 (NAMPT) of 11 nM.
For `CCCOc1ccccc1NS(=O)(=O)c1ccc(CNC(=O)c2cc3cnccc3[nH]2)cc1` [N-({4-[(2-propoxyphenyl)sulfamoyl]phenyl}methyl)-1H-pyrrolo[3,2-c]pyridine-2-carboxamide], the IC50 (A2780 cells; SRB assay) was 100 nM and the IC50 (NAMPT) was 52 nM.
Work on `O=C(NCc1ccc(S(=O)(=O)c2ccc(Cl)c(Cl)c2)cc1)c1cnc2[nH]ncc2c1` [N-({4-[(3,4-dichlorobenzene)sulfonyl]phenyl}methyl)-1H-pyrazolo[3,4-b]pyridine-5-carboxamide] yielded an IC50 (A2780 cells; SRB) of 5.5 nM and an IC50 (NAMPT) of 6.7 nM.
Work on `O=C(NCc1ccc(S(=O)(=O)c2ccc(F)c(F)c2)cc1)c1cc2cnccc2[nH]1` [N-({4-[(3,4-difluorobenzene)sulfonyl]phenyl}methyl)-1H-pyrrolo[3,2-c]pyridine-2-carboxamide] yielded an IC50 (A2780 cells; SRB assay) of 14 nM and an IC50 (NAMPT) of 13 nM.
Work on `O=C(NCc1ccc(S(=O)(=O)c2ccc(F)c(F)c2)cc1)c1cc2ccncc2s1` [N-({4-[(3,4-difluorobenzene)sulfonyl]phenyl}methyl)thieno[2,3-c]pyridine-2-carboxamide] yielded an IC50 (A2780 cells; SRB assay) of 8.1 nM and an IC50 (NAMPT) of 9 nM.
For `COc1ccc(S(=O)(=O)c2ccc(CNC(=O)c3cc4cnccc4[nH]3)cc2)cc1OC` [N-({4-[(3,4-dimethoxybenzene)sulfonyl]phenyl}methyl)-1H-pyrrolo[3,2-c]pyridine-2-carboxamide], the IC50 (A2780 cells; SRB assay) was 3 nM and the IC50 (NAMPT) was 14 nM.
`COc1ccc(S(=O)(=O)c2ccc(CNC(=O)c3ccc4nccn4c3)cc2)cc1OC` [N-({4-[(3,4-dimethoxybenzene)sulfonyl]phenyl}methyl)imidazo[1,2-a]pyridine-6-carboxamide] was tested, and the IC50 (A2780 cells; SRB) was 2.51 nM and the IC50 (NAMPT) was 12 nM.
With `COc1ccc(S(=O)(=O)c2ccc(CNC(=O)c3cc4ccncc4s3)cc2)cc1OC` [N-({4-[(3,4-dimethoxybenzene)sulfonyl]phenyl}methyl)thieno[2,3-c]pyridine-2-carboxamide] the IC50 (A2780 cells; SRB assay) was 0.9 nM and the IC50 (NAMPT) was 3 nM.
Molecule `Cc1ccc(S(=O)(=O)c2ccc(CNC(=O)c3ccc4nccn4c3)cc2)cc1C` [N-({4-[(3,4-dimethylbenzene)sulfonyl]phenyl}methyl)imidazo[1,2-a]pyridine-6-carboxamide] has an IC50 (A2780 cells; SRB) of 2.97 nM and an IC50 (NAMPT) of 11.1 nM.
Work on `Cc1ccc(S(=O)(=O)c2ccc(CNC(=O)c3cc4ccncc4s3)cc2)cc1C` [N-({4-[(3,4-dimethylbenzene)sulfonyl]phenyl}methyl)thieno[2,3-c]pyridine-2-carboxamide] yielded an IC50 (A2780 cells; SRB assay) of 2.3 nM and an IC50 (NAMPT) of 6 nM.
